Test results from patent publication US10532082B2, “SOCS1-derived peptide for use in chronic complications of diabetes” (Fundació Hospital Universitari Vall d'Hebron-Institut de …, priority 2014, dated 2020).
Where no end group is shown, it is not given here. [ ]: non-standard residue; d: D form. lysine‑palmitate = lysine-palmitate bound at the N-terminal end; pY = N[C@@H](Cc1ccc(OP(=O)(O)O)cc1)C(=O)O

Assays:
diabetic mice (db/db) [1] = experiment: Electroretinogram (ERG) recordings, topical eye drops; assay type: in vivo; settings: eye drops 15 days
Method: (§1) 8-week old diabetic mice (db/db) received the miS1 peptide in the form of eye drops (5 μL drops in each eye; 10 mg/mL; twice a day for 15 days; n=7 mice). Diabetic mice treated with the non-functional peptide Mut (n=7), treated with vehicle and non-diabetic mice (db/+) were used as controls. The eye drops were directly administered on the upper surface of the cornea of each eye using a micropipette. The weight and glycemia (colorimetric assay) were controlled throughout the study period. On day 15, the drop with the miS1 peptide or vehicle was administered about two hours before autopsy. […]
Electroretinogram (ERG) recordings were performed in darkness-adapted anesthetized mice (12 hours overnight). Focal electroretinogram (Ferg) recordings were measured using a Micron III Focal ERG system (Phoenix Research Labs, Pleasanton, Calif.). […] The ERG responses of both eyes were recorded in response to 20 ms white light stimuli. […] The ERG signals were amplified, the filtered band was between 0.5 and 1000 Hz, and was analyzed with LabScribe-2 software (BioSeb, Vitrolles, France) in order to calculate the a-wave and b-wave amplitude and implicit time, as recommended by the International Society of Clinical Electrophysiology of Vision (ISCEV) (Marmor et al Doc Ophtalmol 108: 107 a 144). […]

diabetic mice (db/db) [2] = experiment: Glial activation by GFAP immunofluorescence in retina, topical eye drops; assay type: in vivo
Method: as §1
Glial activation was evaluated by means of GFAP (Glial fibrillar acidic protein) immunofluorescence following the methodology described in other studies (Bogdanov et al. PLoS One. 2014; 9:e97302). […] The images of diabetic and control samples were taken with identical parameters and the topographic distribution of the GFAP labelling was analyzed in a scale of 0 to 5 (Anderson et al. Clin Ophthalmol 2008; 2(4):801-16). […] Apoptosis was determined by means of TUNEL (Terminal Transferase dUTP Nick-EndLabeling; fluorescence kit) immunohistochemistry using the previously described method (Bogdanov et al. PLoS One. 2014; 9:e97302) and subsequent quantification under a fluorescence microscope. […]

[3] = test system: streptozotocin diabetic apoE-deficient mice; experiment: Kidney histology (lesions, fibrosis, inflammatory infiltrate) in diabetic mice; assay type: in vivo; settings: STZ apoE mice, i.p. 8 weeks
Method: Apolipoprotein E (apoE)-deficient male mice of 8 weeks of age were made diabetic through streptozotocin injection (125 mg/kg weight in 10 mM citrate, pH 4.5, two consecutive days). After 2 weeks, animals with glycemia greater than 350 mg/dL were randomly distributed in two groups (n=9 animals per group): treated animals (miS1 peptide: 65 μg/day, 200 μL, intraperitoneally, every 2 days for 8 weeks) and controls (vehicle). The weight and glycemia (colorimetric assay) were controlled throughout the study period.
At the end of the study, the anesthetized animals were perfused with saline and sacrificed, processing the tissues immediately. In renal cortex (paraffin sections, 5 μm) the glomerular and tubulointerstitial morphology was studied by means of PAS and Masson trichrome staining and the lesions were evaluated in a double-blind and semi-quantitative manner in a scale of 0-3. Renal fibrosis was determined by means of Picro-Sirius red staining and the infiltrating inflammatory cells (F4/80+ macrophages and CD3+ T-lymphocytes) by immunohistochemistry. In the aorta, the root/arch zone (serial cryosections of 8 μm from the valves to an extension of 1000 μm) was stained with Oil-red-O/hematoxylin and the area of the atherosclerotic lesion was quantified (Metamorph program). Plaque stability was assessed by collagen fiber staining with Picro-Sirius red and α-actin immunofluorescence. The inflammatory component was determined by means of immunohistochemistry for monocyte/macrophages (Moma2). The Image Pro-Plus program was used for quantifying positive stainings. The biochemical parameters in serum (glycated hemoglobin, cholesterol and creatinine) and in urine (albumin and creatinine) were determined by means of conventional commercial kits.

STAT1 = STAT1 activation in cytokine-stimulated macrophages (Western blot); assay type: cell-based, murine; settings: pre-incubation 50-150 ug/mL (Mut 150 ug/mL), IFNγ and IL-6 stimulation
Method: RAW264.7 macrophages and vascular smooth muscle cells (VSMC) cultured in a medium with 10% fetal bovine serum were used. The cells were synchronized (24 hours without serum), pre-incubated for 90 minutes with different peptide concentrations (miS1 or the control thereof, 50-150 μg/mL) and stimulated with cytokines (IFNγ […]). STAT activation was analyzed by means of Western blot for phosphorylated STAT1/STAT3 isoforms. JAK/STAT pathway-dependent chemokine (CCL2) expression was determined by means of ELISA. Cell viability was analyzed by MTT colorimetric assay and macrophage migration was analyzed by chemotaxis assay.

miS1: SEQ ID NO 1 DTHFRTFRSHSDYRRI, kinase inhibitory region of murine SOCS1, bound to lysine-palmitate at the N-terminal end, tyrosine phosphorylated ({lysine‑palmitate}-DTHFRTFRSHSD[pY]RRI)
ERG a-wave and b-wave implicit time (diabetic mice (db/db) [1]; diabetes-induced increase): declines | ERG a-wave and b-wave amplitude (diabetic mice (db/db) [1]; diabetes-induced reduction): declines the reduction | GFAP score (diabetic mice (db/db) [2]; eye drops 50 μg in 5 μL/eye twice a day, 15 days, scale 0 to 5): 3 | reduction of GFAP glial protein staining (diabetic mice (db/db) [2]; eye drops 15 days, compared with groups that received Mut peptide or vehicle): about 80% | inflammatory lymphocyte and macrophage infiltrate in kidney [3]: significantly reduced | tubulointerstitial fibrosis [3]: significantly reduced | glomerular lesions (hypercellularity, mesangial expansion and glomerular hypertrophy) ([3]; vs vehicle): improvement | tubulointerstitial lesions (atrophy, degeneration and infiltrate) ([3]; vs vehicle): improvement | STAT1 activation (phosphorylation) (STAT1): reduced STAT1 and STAT3 activation in a dose-dependent manner
